Test results reported in a compilation of properties of binary mixtures (doi:10.1021/je990207b).

Assay: excess molar enthalpy (molar enthalpy of mixing); xn = mol fraction of the nth substance listed
Conditions: 298.15 K, 100 kPa

CC(=O)O + CC#N
Conditions	excess molar enthalpy [kcal/mol]
x2 = 0.0927	0.023
x2 = 0.1409	0.0359
x2 = 0.2787	0.0588
x2 = 0.381	0.0696
x2 = 0.571	0.0679
x2 = 0.7416	0.0474
x2 = 0.809	0.0379
x2 = 0.8722	0.0268
x2 = 0.915	0.019

CCCCC(=O)O + CC#N
Conditions	excess molar enthalpy [kcal/mol]
x2 = 0.1197	0.0643
x2 = 0.1899	0.1
x2 = 0.2311	0.12
x2 = 0.2782	0.139
x2 = 0.4131	0.183
x2 = 0.4825	0.199
x2 = 0.5404	0.205
x2 = 0.6211	0.202
x2 = 0.637	0.2
x2 = 0.6655	0.195
x2 = 0.7138	0.182
x2 = 0.7441	0.173
x2 = 0.8076	0.14
x2 = 0.8487	0.115
x2 = 0.9029	0.0725
x2 = 0.9603	0.0285

CC(C)C(=O)O + CC#N
Conditions	excess molar enthalpy [kcal/mol]
x2 = 0.187	0.116
x2 = 0.2347	0.141
x2 = 0.2938	0.172
x2 = 0.3508	0.192
x2 = 0.3982	0.206
x2 = 0.4547	0.22
x2 = 0.5013	0.222
x2 = 0.5479	0.221
x2 = 0.6046	0.214
x2 = 0.6531	0.201
x2 = 0.6827	0.189
x2 = 0.7273	0.172
x2 = 0.8013	0.138
x2 = 0.9158	0.0654

CCC(=O)O + CC#N
Conditions	excess molar enthalpy [kcal/mol]
x2 = 0.156	0.0696
x2 = 0.2134	0.0896
x2 = 0.278	0.11
x2 = 0.3407	0.127
x2 = 0.399	0.139
x2 = 0.4626	0.148
x2 = 0.5057	0.151
x2 = 0.5993	0.145
x2 = 0.6517	0.136
x2 = 0.7248	0.118
x2 = 0.8046	0.0932

CC(C)CC(=O)O + CC#N
Conditions	excess molar enthalpy [kcal/mol]
x2 = 0.0895	0.0454
x2 = 0.1287	0.0645
x2 = 0.1972	0.0978
x2 = 0.3371	0.151
x2 = 0.4026	0.175
x2 = 0.52	0.205
x2 = 0.5902	0.21
x2 = 0.6283	0.207
x2 = 0.7177	0.189
x2 = 0.7835	0.161
x2 = 0.8207	0.136
x2 = 0.8529	0.12
x2 = 0.8744	0.104
x2 = 0.9379	0.0492

CCCC(=O)O + CC#N
Conditions	excess molar enthalpy [kcal/mol]
x2 = 0.089	0.0382
x2 = 0.1448	0.0632
x2 = 0.1884	0.0809
x2 = 0.2668	0.108
x2 = 0.4626	0.15
x2 = 0.523	0.155
x2 = 0.5889	0.152
x2 = 0.6417	0.147
x2 = 0.6605	0.143
x2 = 0.686	0.138
x2 = 0.7141	0.131
x2 = 0.7884	0.105
x2 = 0.8201	0.0917
x2 = 0.8728	0.0713
x2 = 0.9067	0.0519
x2 = 0.9377	0.031
